± gives the standard deviation of the averaged measurements.
Compound: CC(=O)N1CCc2c(c(N3CCCc4cc(-c5cnn(C)c5)c(C(F)F)cc43)nn2C2CCC(CN3CCN(c4ccc5c(c4)C(=O)N(C4CCC(=O)NC4=O)C5=O)CC3)CC2)C1 [CBPD-409]
Experiment: AUC of viability dose-response curve (relative to vehicle, 8 doses up to 10 µM) (fraction); higher = less sensitive (more viable); extreme values may be limits of the assay
Procedure: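 PRISM multiplexed pooled barcoded cell line viability screen at the Broad Institute, 887 cancer cell lines treated with CBPD-409 (p300/CBP PROTAC degrader) at 8 concentrations in threefold dilution, top dose 10 µM. The read-out is the area under the dose-response curve of relative viability versus vehicle (n=3). AUC < 0.3 is called strongly sensitive and AUC > 0.8 resistant.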

Test System | AUC of viability dose-response curve
CJM_SKIN | 0.415
UMRC7_KIDNEY | 0.773
GCIY_STOMACH | 0.542
ISHIKAWAHERAKLIO02ER_ENDOMETRIUM | 1
COV434_OVARY | 0.556
5637_URINARY_TRACT | 1
SUPT11_HAEMATOPOIETIC_AND_LYMPHOID_TISSUE | 1
PANC0203_PANCREAS | 0.751
CAL51_BREAST | 0.595
JHUEM7_ENDOMETRIUM | 1
IGR1_SKIN | 0.626
IGR39_SKIN | 0.847
MFE319_ENDOMETRIUM | 0.353
UMRC3_KIDNEY | 0.929
HUH7_LIVER | 0.796
KYSE270_OESOPHAGUS | 0.722
HEC1_ENDOMETRIUM | 1
SNGM_ENDOMETRIUM | 0.527
ECC2_BILIARY_TRACT | 0.402
WM1799_SKIN | 0.639
A1207_CENTRAL_NERVOUS_SYSTEM | 1
RH28_SOFT_TISSUE | 0.625
NCIH1341_LUNG | 1
SW948_LARGE_INTESTINE | 0.577
BFTC905_URINARY_TRACT | 0.443

Test System | AUC of viability dose-response curve
HCT116_LARGE_INTESTINE | 0.998
BICR31_UPPER_AERODIGESTIVE_TRACT | 0.695
HEL_HAEMATOPOIETIC_AND_LYMPHOID_TISSUE | 0.267
COLO668_LUNG | 0.615
TE15_OESOPHAGUS | 0.364
COV318_OVARY | 0.899
RH36_SOFT_TISSUE | 0.779
EGI1_BILIARY_TRACT | 0.872
SKGII_ENDOMETRIUM | 0.894
MP41_UVEA | 0.212
OCIAML2_HAEMATOPOIETIC_AND_LYMPHOID_TISSUE | 0.551
KS1_CENTRAL_NERVOUS_SYSTEM | 0.307
HDMB03_CENTRAL_NERVOUS_SYSTEM | 0.453
MELHO_SKIN | 0.263
CADOES1_BONE | 0.458 ± 0.12
CAL148_BREAST | 1
HPAFII_PANCREAS | 0.919
NCIH322_LUNG | 0.574
LN229_CENTRAL_NERVOUS_SYSTEM | 1
AM38_CENTRAL_NERVOUS_SYSTEM | 1
AN3CA_ENDOMETRIUM | 0.693
HAC2_OVARY | 1
NCIH838_LUNG | 0.893
M059K_CENTRAL_NERVOUS_SYSTEM | 0.673
SNB75_CENTRAL_NERVOUS_SYSTEM | 1

Test System | AUC of viability dose-response curve
KYSE30_OESOPHAGUS | 0.619
LCLC103H_LUNG | 1
NCIH2122_LUNG | 0.654
SW1710_URINARY_TRACT | 0.8
WM793_SKIN | 0.949
HUT78_HAEMATOPOIETIC_AND_LYMPHOID_TISSUE | 1
TE617T_SOFT_TISSUE | 0.851
RCM1_LARGE_INTESTINE | 1
HCC95_LUNG | 1
SNU81_LARGE_INTESTINE | 0.767
MOLP2_HAEMATOPOIETIC_AND_LYMPHOID_TISSUE | 0.555
A498_KIDNEY | 0.943
NCIH2030_LUNG | 1
BICR16_UPPER_AERODIGESTIVE_TRACT | 0.181
NCIH441_LUNG | 0.558
PANC0504_PANCREAS | 0.671
J82_URINARY_TRACT | 0.921
KKU055_BILIARY_TRACT | 0.915
TE9_OESOPHAGUS | 1
SG231_BILIARY_TRACT | 0.46
KYM1_SOFT_TISSUE | 0.446
CHLA200_CENTRAL_NERVOUS_SYSTEM | 0.168
TOLEDO_HAEMATOPOIETIC_AND_LYMPHOID_TISSUE | 0.416
SNU449_LIVER | 0.947
AGS_STOMACH | 0.812

Test System | AUC of viability dose-response curve
IPC298_SKIN | 0.808
NCIH2347_LUNG | 0.648
NCIH2087_LUNG | 0.834
MDAMB468_BREAST | 0.97
SKNMC_BONE | 0.996
C80_LARGE_INTESTINE | 0.689
TC106_BONE | 1
DOTC24510_CERVIX | 0.344
SKMEL5_SKIN | 0.506
DAOY_CENTRAL_NERVOUS_SYSTEM | 0.958 ± 0.059
SW900_LUNG | 0.853
UBLC1_URINARY_TRACT | 0.437
U87MG_CENTRAL_NERVOUS_SYSTEM | 0.732
NCIH2110_LUNG | 0.703
EFO21_OVARY | 0.764
CL34_LARGE_INTESTINE | 0.812
KMH2_HAEMATOPOIETIC_AND_LYMPHOID_TISSUE | 1
HT1197_URINARY_TRACT | 1
DMS53_LUNG | 0.475
DKMG_CENTRAL_NERVOUS_SYSTEM | 0.733
CAOV3_OVARY | 0.648
JEG3_PLACENTA | 0.307
NUGC4_STOMACH | 0.344
VMRCRCZ_KIDNEY | 0.584
MCAS_OVARY | 1

Test System | AUC of viability dose-response curve
SW1783_CENTRAL_NERVOUS_SYSTEM | 0.884
SNU308_BILIARY_TRACT | 0.95
SCLC21H_LUNG | 1
NCIH1092_LUNG | 1
253J_URINARY_TRACT | 1
SHMAC5_PROSTATE | 1
BICR6_UPPER_AERODIGESTIVE_TRACT | 0.907
HOS_BONE | 0.931 ± 0.027
PLCPRF5_LIVER | 1
A549_LUNG | 1
KE39_STOMACH | 1
CAL120_BREAST | 0.497
KKU213_BILIARY_TRACT | 0.767
BICR18_UPPER_AERODIGESTIVE_TRACT | 1
HS729_SOFT_TISSUE | 0.807 ± 0.27
HS944T_SKIN | 1
HEC108_ENDOMETRIUM | 0.693
PK8_PANCREAS | 0.556
HCC44_LUNG | 1
HLF_LIVER | 1
CAL54_KIDNEY | 0.502
HT144_SKIN | 1
921_UVEA | 0.336
SNU2372_BREAST | 1
